The subject of data set [1] is MCF-7 cells. The format is cell-based, human. The following applies: 30 μM, 24 h. As to the method:
The untreated cells were used as control.
MCF-7 cells were seeded in 6-well plates at 5.0×10^5 cells per well in 2 mL of complete DMEM and cultured for 24 h. […] MCF-7 cells without the treatment were used as a control. […] For cell cycle determination, treated cells were collected, washed for twice with ice-cold PBS, fixed with 70% ethanol at 4° C. overnight and treated with Rnase A for 45 min at 37° C., followed by PI staining for 30 min in the dark.

For data set [2], the system named is caspase-3. Kind of data set: Western blot analysis of caspase-3 expression. The format is cell-based, human. The note with it: MCF-7 cells, 30 μM, 24 h. On the technique in general: A western blot detects proteins with antibodies after separation by electrophoresis.
Procedure: The untreated MCF-7 cells were used as a negative control.
MCF-7 cells were seeded in 6-well plates at a density of 5.0×10^5 cells per well in 2 mL of complete DMEM and allowed to attach for 24 h. […] MCF-7 cells untreated were used as a negative control. After treatment for 24 h, the MCF-7 cells were harvested. The cellular proteins were extracted in Laemmli buffer and the protein content in the extracts was quantified using a bicinchoninic acid (BCA) protein assay kit (Pierce, USA). Equal amounts of proteins (30 μg lane^−1) were separated on sodium dodecyl sulfate-polyacrylamide gels (SDS-PAGE) and electrotransferred to 0.22 μm polyvinylidene fluoride (PVDF) membranes. The membranes were then blocked with 5% non-fat dry milk in TBST (Tris buffered saline supplemented with 0.05% Tween-20) and probed with antibodies against β-actin (1:1,000 dilution), caspase-3 (1:1,000 dilution) followed by HRP-conjugated (HRP: horseradish peroxidase) anti-rabbit immunoglobulin-G (IgG, 1:5,000 dilution). β-Actin was used as the loading control. Protein bands were detected using Chemiluminescent HRP Substrate (Themo Scientific, USA) according to the manufacture's protocol and analyzed using the ChemiDoc™ MP Imaging System (Bio-Rad, USA).
Data set [3] can be described thus: In vivo biodistribution in MCF-7 tumor-bearing mice. The note with it: MCF-7 tumor-bearing nude mice, i.v.; Cb 3.5, Ir 6.7, Ir-Cb nanoparticles 10 mg kg^−1. More on the design: species or system Balb/c female nude mice. As to the method:
Furthermore, to examine the amount of Ir-Cb ADDC in the tumors and other organs, the MCF-7 tumor-bearing mice were sacrificed after intravenous injection with different time intervals. The tumor-bearing mice treated with free Cb and Ir were used as controls. […] After injection for 6 h, the content of Ir-Cb ADDC obviously decreases in kidney, spleen and lung, whereas the downward trend in tumor and liver is slower (FIG. 13b). […] After 6 h, the Ir concentration in spleen and lung decreases quickly.
The biodistribution of Cb, Ir and Ir-Cb nanoparticles was analyzed in Balb/c female nude mice bearing MCF-7 tumors. The MCF-7 tumor-bearing mice were intravenously injected via tail vein with Cb, Ir and Ir-Cb nanoparticles at a dose of Cb (3.5 mg kg^−1), Ir (6.7 mg kg^−1) and Ir-Cb nanoparticles (10 mg kg^−1). Mice were sacrificed by cervical vertebra dislocation at 30 min, 1 h and 6 h after drug administration (n=3 at each time point), and the heart, liver, spleen, lung, kidney and tumor were collected. Tissue samples were rinsed in saline, blotted using paper towel, weighed and stored at −80° C. before being homogenized. Cb, Ir and Ir-Cb were extracted from the homogenate using 2 mL of dichloromethane and methanol (4:1, v/v). The organic phases were collected and dried, and the samples were dissolved in acetonitrile for analysis.

In data set [4] the test system is MCF-7 tumor. The format is in vivo, Balb/c female nude mice. The note with it: for tumor inhibitory rate (TIR): from tumor weight versus PBS group, 24 days. As to the method:
Tumor volume and body weight of tumor-bearing mice were monitored every 3 days within 24 days. […] The tumor inhibitory rate (TIR) was calculated from tumor weight.
Study protocols involving animals were approved by the Animal Ethics Committee of Shanghai Jiao Tong University School of Medicine. SD rats (˜200 g) and 72 Balb/c female nude mice (4 weeks of age) were supplied by Chinese Academy of Sciences (Shanghai). The female nude mice were injected subcutaneously in the right flank region with 200 μL of cell suspension containing 4×10^6 MCF-7 cells. The tumors were allowed to grow to ˜200 mm^3 before experimentation.
Each mouse of different group was earmarked and followed individually throughout the whole experiments. The length and width of the tumor and the body weight of mice were measured before every injection by the end of experiment. Tumor volume (V) was calculated using the formula: V (mm^3)=½×length (mm)×width (mm)^2. After 24 days postinjection, mice were sacrificed, and tumors were separated, weighted and photographed. In addition, the tumors were cut into small pieces, fixed in 10% formalin and embedded in paraffin. Then the tissues embedded in paraffin were sectioned for histopathological analysis with H&E staining.

Data set [5] in a line: Pharmacokinetic study (blood retention) after i.v. injection. The note with it: rats, 8 mg kg^−1, 12 h.
Procedure: The blood samples (0.5 mL) were taken from the eye socket at the 5 min, 15 min, 30 min, 1 h, 2 h, 4 h, 6 h, 8 h, and 12 h time points after injection. The plasma was obtained by centrifugation at 3,000 rpm for 10 min and stored at −20° C. A 200 μL of plasma was treated two times with 250 μL of acetonitrile and methanol mixture (1:1 v/v). The solvent solutions separated by centrifugation were pooled.
Data set [6] has as its system MCF-7 cells. Description: Cell cycle assay (PI staining, flow cytometry). The format is cell-based, human. The following applies: 30 μM, 24 h. As to the method:
MCF-7 cells were seeded in 6-well plates at 5.0×10^5 cells per well in 2 mL of complete DMEM and cultured for 24 h. […] MCF-7 cells without the treatment were used as a control. For quantitative measurement of apoptosis, treated cells were harvested and washed twice with ice-cold PBS, stained with Alexa Fluor® 488 annexin V and PI according to the manufacturer's instructions. For cell cycle determination, treated cells were collected, washed for twice with ice-cold PBS, fixed with 70% ethanol at 4° C. overnight and treated with Rnase A for 45 min at 37° C., followed by PI staining for 30 min in the dark. Both cell apoptosis and cycle were analyzed by flow cytometry (BD FACSCalibur, USA), and […] per sample were counted.
(In general: In flow cytometry, cells or beads pass a laser one at a time.)

Data set [7] deals with MCF-7 cells. Kind of data set: In vitro cytotoxicity by MTT assay, MCF-7 cells. The protocol: The cells without any treatment were used as the control.
The cells were seeded into 96-well plates at 1×10^4 cells per well in 200 μL of culture medium. […] The cells without the treatment were used as control. The cells were grown for another 72 h. Then, 20 μL of 5 mg mL^−1 MTT assay stock solution in PBS was added to each well. After the cells were incubated for 4 h, the medium containing unreacted MTT was carefully removed. Then, the obtained blue formazan crystals were dissolved in 200 μL well^−1 DMSO, and the absorbance was measured in a BioTek Synergy H4 hybrid reader at a wavelength of 490 nm. The blank was subtracted to the measured optical density (OD) values, and the cell viability was expressed as % of the values obtained for the untreated control cells.
For orientation: Tetrazolium assays rely on reduction of a dye to a coloured formazan, in cell work by metabolically active cells.

The test system of data set [8] is MCF-7 tumor. Kind of data set: Immunohistochemical analysis of tumor tissues (H&E, PCNA). The format is in vivo, Balb/c female nude mice. The following applies: MCF-7 tumors after treatment. The protocol: 3 days after the last injection, mice were sacrificed and tumor tissues were excised. The tissues were fixed in 10% formalin and embedded in paraffin. The paraffin-embedded 5 μm tumor sections were analyzed by immunohistochemical analysis for PCNA expression. To analyze the PCNA, endogenous peroxidase activity was inhibited by 3% hydrogen peroxide aqueous solution for 10 min, and the sections were heated to boiling in 0.01 M sodium citrate buffer (pH 6.0) for 10 min in the microwave oven for antigen retrieval and repeated boiling process for once. Subsequently, the sections were allowed to cool in the same buffer, rinsed twice with PBS for 5 min and then incubated with PCNA antibody (Boster, China, 1:200) for 30 min at room temperature and then at 4° C. overnight. After washing, sections were incubated with biotinylated secondary antibodies for 20 min at 37° C. Finally, a streptavidin-biotin complex was applied and the immunoreactivity was visualized with diaminobenzidine as a chromogen. The sections were imaged by using Olympus Fluorescence Microscope (Olympus BX61). […]
Each mouse of different group was earmarked and followed individually throughout the whole experiments. The length and width of the tumor and the body weight of mice were measured before every injection by the end of experiment. Tumor volume (V) was calculated using the formula: V (mm^3)=½×length (mm)×width (mm)^2. […]

Data set [9] is described as follows: In vitro drug release by dialysis in buffered solutions. The following applies: pH 5.0, 37° C.
Data set [10] concerns MCF-7/ADR cells. Description: Accumulation and efflux assay in MCF-7 and MCF-7/ADR cells (flow cytometry). The format is cell-based, human. The note with it: 30 μM, 1-4 h incubation.
Procedure: The fluorescent intensity was calculated by CellQuest software, and blanked by untreated cells.
Data set [11] is described as follows: Critical aggregation concentration (CAC) measurement with pyrene fluorescent probe. The format is physicochemical. The following applies: in water, pyrene I3/I1. As to the method: To investigate the self-assembly behavior of Ir-Cb ADDC in water, the critical aggregation concentration (CAC) was measured by using pyrene as a fluorescent probe. I1 and I3 are the emission intensities of the first and third bands in the fluorescence spectrum of pyrene respectively, which are labeled as 1 and 3 in the inset of FIG. 7c. The emission intensity ratio of I3/I1 is very sensitive to the polarity of the medium surrounding pyrene molecules. (Kwon, et al. 1993 Langmuir 9, 945-949.) The higher polarity of the medium, the lower the intensity ratio is. The relationship of the I3/I1 ratio with the Ir-Cb ADDC concentration is present in FIG. 7c. At low Ir-Cb ADDC concentration, the I3/I1 value remains nearly unchanged, indicating the characteristics of pyrene in water environment. With increasing Ir-Cb ADDC concentration, the ratio of I3/I1 starts to increase dramatically and reaches the characteristic level of pyrene in hydrophobic environment at a certain Ir-Cb ADDC concentration. According to the inflexion of the curve, the CAC value of the Ir-Cb ADDC is about 7 μg mL^−1.
To determine the CAC value of the Ir-Cb ADDC, pyrene was used as the fluorescence probe. […] The fluorescence emission spectra of all samples were recorded on a LS-50B luminescence spectrometer (Perkin Elmer Co.) at 335 nm excitation wavelength and 8 nm slit width. The I3/I1 values of all solution were recorded.

Data set [12] can be described thus: Self-assembly of Ir-Cb ADDC in water: size and morphology by DLS and TEM. It counts as physicochemical. As to the method:
The inherent amphiphilicity of the Ir-Cb ADDC provides an opportunity for itself to self-assemble into nanoparticles in water. To determine the size and morphology of the self-assembled nanoparticles, a dimethylsulfoxide (DMSO) solution of the Ir-Cb ADDC was added dropwise into water, followed by dialysis against water to remove DMSO. A stable and bluish solution with the final Ir-Cb conjugate concentration of 0.5 mg mL^−1 was obtained. FIG. 7a gives the dynamic light scattering (DLS) curve of Ir-Cb ADDC aqueous solution with a concentration of 0.5 mg mL^−1, indicating the formation of aggregates with a narrow unimodal distribution and an average hydrodynamic diameter of approximate 88.3 nm. The morphology of the aggregates was observed by transmission electron microscopy (TEM). […] This size is slightly smaller than that measured by DLS due to the shrinkage of nanoparticles in a drying state during TEM sample preparation. […]
^1H and ^13C nuclear magnetic resonance (^1H NMR and ^13C NMR) spectra were recorded using a Varian Mercury Plus 400 MHz spectrometer. Fourier transform infrared (FTIR) spectra were recorded on a Paragon 1,000 instrument by KBr sample holder method. […] All samples were measured at a scattering angle of 90°. […] Ultraviolet-visible (UV-Vis) absorption of the sample solutions was measured at room temperature by using a Thermo Electron-EV300 UV-Vis spectrophotometer. […]

With `O=C(O)CCCc1ccc(N(CCCl)CCCl)cc1` [Cb, chlorambucil], the “ratio of apoptosis cells” value in data set [1] came to 18.02%. Moreover, the “caspase-3 protein expression versus untreated control” value in [2] was “up-regulated slightly”. Further, the tissue distribution entry in data set [3] is “largely accumulates in liver, followed by spleen, lung, heart and kidney”. Also, the “tumor volume compared with the PBS group” value in [4] (after 24 days treatment, i.v. once every 3 days) came to 91.60±2.09%. For the same compound, the “tumor inhibitory rate (TIR)” value in [4] was 9.3±2.10%. Besides, in [5], the “plasma concentration after 12 h relative to Ir-Cb ADDC” value was “one twenty-fifth”.

The term IC50 denotes the concentration at which inhibition is half-maximal. Consider `CCc1c2c(nc3ccc(OC(=O)N4CCC(N5CCCCC5)CC4)cc13)-c1cc3c(c(=O)n1C2)COC(=O)[C@]3(O)CC` [Ir, irinotecan], for which the “caspase-3 protein expression versus untreated control” value in data set [2] is reported as “up-regulated slightly”. In addition, the tissue distribution entry in data set [3] was “mainly accumulates in liver, followed by spleen, lung, kidney and heart up to 2 h”. Besides, in data set [6], the “percentage of G0/G1 phase” value was found to be 34.25%, the “percentage of G2/M” value is recorded as 27.81% and the “percentage of S” value was 37.93%. In addition, the “tumor inhibitory rate (TIR)” value in data set [4] was determined as 42.3±6.63%. Besides, the IC50 in data set [7] (Homo sapiens, MCF7, 72 h) was ~5 µM. For the same compound, in data set [7] (MCF-7 cells), the “cytotoxicity compared with free Cb” value is recorded as “much higher than that of free Cb”.

For `CCc1c2c(nc3ccc(OC(=O)N4CCC(N5CCCCC5)CC4)cc13)-c1cc3c(c(=O)n1C2)COC(=O)[C@@]3(CC)OC(=O)CCCc1ccc(N(CCCl)CCCl)cc1` [Ir-Cb ADDC], in [8], the “H&E histology of tumor tissue” value is “large necrotic area is observed”. Besides, the tissue distribution entry in data set [3] is “accumulate in liver, spleen, kidney, lung and tumor at first 2 h”. In addition, in data set [9], the “Ir release / hydrolysis at pH 5.0” value is “hydrolysis of Ir-Cb ADDC is accelerated”. In addition, the “accumulation in MCF-7/ADR cells compared with that in MCF-7 cells” value in data set [10] is given as “about ½”. Further, the “critical aggregation concentration (CAC)” value in [11] is recorded as “about 7 μg mL^−1”. The “anticancer efficiency compared with free Ir and Ir/Cb mixture” value in data set [7] (MCF-7 cells, concentration higher than the CAC value) is “much better anticancer efficiency than free Ir and Ir/Cb mixture”. Besides, the “antitumor activity compared with free Ir and Ir/Cb mixture” value in [7] (MCF-7 cells, drug concentration lower than the CAC value) was “worse than that of free Ir and Ir/Cb mixture”. For the same compound, in [12] (aqueous solution 0.5 mg mL^−1), the “average hydrodynamic diameter (Dh) by DLS” value is listed as ~88.3 nm. In data set [12] (dried state), the “average size of spherical nanoparticles by TEM” value is ~75.7 nm.

Source of the values: patent US10960078B2 (priority 2013, dated 2021).
